Source: patent publication US7989464B2, “mGluR1 antagonists as therapeutic agents” (Schering Corporation, priority 2004, dated 2011)
Where two headings read alike, the source gives them in different places.

Target: T1, hmGluR1 receptor (Homo sapiens, UniProt Q13255)
T1 construct: expressed in transfected cells
Test: IC50 determination: intracellular calcium mobilization (FLIPR) upon Quisqualate stimulation in CHO cells stably expressing hmGluR1
Format: cell-based
Settings: against Quisqualate 1 μM (EC80)
Summary of the method: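 CHO cells stably expressing hmGluR1 were kept overnight in DMEM high glucose with GPT and 1 mM pyruvate, then loaded 2 h with Calcium 3 dye.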

[1] = FLIPR calcium mobilization, read-out: IC50 Class
[2] = class symbols, read-out: mGIuR 1 IC50
[3] = FLIPR calcium mobilization, read-out: mGluR1 IC50

T1 sequence (Q13255 19-1194): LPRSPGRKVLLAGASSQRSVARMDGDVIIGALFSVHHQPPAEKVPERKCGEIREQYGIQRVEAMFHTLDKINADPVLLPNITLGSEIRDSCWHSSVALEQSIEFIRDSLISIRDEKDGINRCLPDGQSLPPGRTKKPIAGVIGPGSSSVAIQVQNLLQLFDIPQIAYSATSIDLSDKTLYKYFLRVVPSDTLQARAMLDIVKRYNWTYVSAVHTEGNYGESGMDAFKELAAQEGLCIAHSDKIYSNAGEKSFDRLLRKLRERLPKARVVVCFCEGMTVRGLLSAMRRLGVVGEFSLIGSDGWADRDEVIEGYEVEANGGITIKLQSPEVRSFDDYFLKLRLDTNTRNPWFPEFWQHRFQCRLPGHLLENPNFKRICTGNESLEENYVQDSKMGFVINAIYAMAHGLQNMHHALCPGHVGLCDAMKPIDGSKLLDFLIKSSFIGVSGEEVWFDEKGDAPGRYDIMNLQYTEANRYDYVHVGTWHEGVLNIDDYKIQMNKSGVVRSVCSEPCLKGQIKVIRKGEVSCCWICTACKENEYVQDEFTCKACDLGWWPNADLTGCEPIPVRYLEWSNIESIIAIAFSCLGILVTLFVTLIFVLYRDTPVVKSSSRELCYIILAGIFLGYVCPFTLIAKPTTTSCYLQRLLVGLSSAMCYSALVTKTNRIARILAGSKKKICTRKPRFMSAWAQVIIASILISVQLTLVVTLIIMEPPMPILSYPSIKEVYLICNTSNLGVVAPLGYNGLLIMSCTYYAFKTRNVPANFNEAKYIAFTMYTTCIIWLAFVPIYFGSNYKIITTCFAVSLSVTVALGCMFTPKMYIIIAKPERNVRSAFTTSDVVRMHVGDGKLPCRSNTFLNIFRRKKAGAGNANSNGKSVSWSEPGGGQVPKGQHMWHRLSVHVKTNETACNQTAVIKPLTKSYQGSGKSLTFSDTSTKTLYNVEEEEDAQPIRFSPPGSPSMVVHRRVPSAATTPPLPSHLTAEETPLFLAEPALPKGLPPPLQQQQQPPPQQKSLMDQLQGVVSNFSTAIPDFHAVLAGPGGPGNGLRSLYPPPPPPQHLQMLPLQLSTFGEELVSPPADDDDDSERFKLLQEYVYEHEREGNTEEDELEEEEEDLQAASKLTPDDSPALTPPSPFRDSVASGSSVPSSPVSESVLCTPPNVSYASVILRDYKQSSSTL

IC50 [1] [nM] | IC50 [2] [nM] | also measured | SMILES
150 to 1000 |  |  | COc1ncnc2sc3c(=O)n(-c4ccc(Cl)cc4)cnc3c12 [95FO]
< 50 |  |  | Nc1c(Br)cnc2sc3c(=O)n(-c4ccc(Cl)cc4)cnc3c12 [compound 196]
 | 150 to 1000 |  | CN(C)c1ccnc2sc3c(=O)n(-c4ccc5[nH]nnc5c4)cnc3c12 [7AO]
 | > 1000 |  | CN(C)c1ccnc2sc3c(=O)n(N(c4ccccc4)c4ccccc4)cnc3c12 [60J]
 | < 50 |  | CN(C)c1ccnc2sc3c(=O)n(-c4ccc(C5CC5)cc4)cnc3c12 [137A]
> 1000 |  |  | CCCCOc1ncnc2sc3c(=O)n(-c4ccc(OC)cc4)cnc3c12 [compound 191]
< 50 |  |  | O=c1c2sc3nccc(C4CC4)c3c2ncn1-c1ccc(Cl)cc1 [compound 187]
 | < 50 |  | CCCNc1ccnc2sc3c(=O)n(-c4ccc(C)cc4)cnc3c12 [28AS]
 | < 50 |  | CCNc1ncnc2sc3c(=O)n(-c4ccc5c(c4)CCO5)cnc3c12 [95AC]
 | < 50 |  | COc1ccc(-n2cnc3c(sc4ncc(Br)c(N(C)C)c43)c2=O)cc1 [compound 151]
< 50 |  |  | CNc1ccnc2sc3c(=O)n(-c4ccc5c(c4)CCO5)cnc3c12 [28BR]
 | > 1000 |  | O=c1c2sc3nccc(N4CCCC4)c3c2ncn1C1CCCCC1 [28A]
 | < 50 |  | Cc1ccc(-n2cnc3c(sc4nccc(NCCO)c43)c2=O)cc1 [28AV]
> 1000 |  |  | O=c1c2sc3nccc(NC4CC4)c3c2ncn1-c1ccc(OS(=O)(=O)C(F)(F)F)cc1 [28HT]
 | < 50 |  | CNc1ccnc2sc3c(=O)n(-c4ccc(O)cc4)cnc3c12 [7CD]
 | < 50 |  | CCNc1ccnc2sc3c(=O)n(-c4ccc5c(c4)OCO5)cnc3c12 [131E]
 | 50 to 150 |  | Cc1ccc(-n2c(C)nc3c(sc4nccc(NCCO)c43)c2=O)cc1 [113N]
 | < 50 |  | CNc1ccnc2sc3c(=O)n(-c4ccc(OC)c(F)c4)cnc3c12 [7CA]
 | > 1000 |  | CN(C)c1ccnc2sc3c(=O)n(-c4ccc5[nH]c(C(F)(F)F)nc5c4)cnc3c12 [7BD]
 | < 50 |  | CN(C)c1ccnc2sc3c(=O)n(-c4csc5ccccc45)cnc3c12 [15AG]
150 to 1000 |  |  | C#CCNc1ncnc2sc3c(=O)n(-c4ccc5sccc5c4)cnc3c12 [95EP]
 | < 50 |  | C=CCOc1ccnc2sc3c(=O)n(-c4ccc(C)cc4)cnc3c12 [66D]
< 50 |  |  | COc1ccc(-n2cnc3c(sc4ncc(Br)c(N)c43)c2=O)cc1 [173B]
> 1000 |  |  | CC#Cc1ccnc2sc3c(=O)n(-c4ccc(Cl)cc4)cnc3c12 [compound 177]

IC50 [1] [nM] | IC50 [2] [nM] | also measured | SMILES
< 50 |  |  | COCCCNc1ccnc2sc3c(=O)n(-c4ccc(F)cc4)cnc3c12 [28GS]
> 1000 |  |  | CN(C)c1cccc2sc3c(=O)n(-c4ccccc4F)cnc3c12 [103L]
< 50 |  |  | O=c1c2sc3ncnc(NC4CC4)c3c2ncn1-c1ccc2scnc2c1 [95BA]
 | 150 to 1000 |  | Cc1ccc(-n2cnc3c(sc4nccc(NCC5CC5)c43)c2=O)cc1 [28AY]
 | < 50 |  | CCc1ccc(-n2cnc3c(sc4nccc(N(C)C)c43)c2=O)cc1 [7BJ]
50 to 150 |  |  | CN(CCO)c1ccnc2sc3c(=O)n(-c4ccc(F)cc4)cnc3c12 [28HH]
< 50 |  |  | CCN(C)c1ccnc2sc3c(=O)n(-c4cccc(F)c4)cnc3c12 [28CM]
< 50 |  |  | C=C(C)CNc1ncnc2sc3c(=O)n(-c4ccc5scnc5c4)cnc3c12 [95FC]
< 50 |  |  | C=C(C)CNc1ccnc2sc3c(=O)n(-c4ccc(OC)cc4)cnc3c12 [28FB]
 | < 50 |  | CCNc1ccnc2sc3c(=O)n(-c4ccc(O)cc4)cnc3c12 [131B]
< 50 |  |  | CNc1ccnc2sc3c(=O)n(-c4ccc5c(c4)OCCO5)cnc3c12 [28BZ]
< 50 |  | IC50 [3]: 0.91 nM | C#CCNc1ccnc2sc3c(=O)n(-c4ccc(Cl)cc4)cnc3c12 [28DL]
150 to 1000 |  |  | CC(C)Nc1ccnc2sc3c(=O)n(-c4ccc(Br)cc4)cnc3c12 [28HD]
150 to 1000 |  |  | Cc1ccc(-n2cnc3c(sc4nc(C5CC5)nc(N)c43)c2=O)cc1 [71D]
 | 50 to 150 |  | O=c1c2sc3nccc(NCCO)c3c2ncn1C1CCCCC1 [28AG]
 | < 50 |  | CN(C)c1ccnc2sc3c(=O)n(C4CCCCCCC4)cnc3c12 [15Q]
150 to 1000 |  |  | Cc1ccc(-n2cnc3c(sc4ncnc(NCC5CCCO5)c43)c2=O)cc1 (stereo not drawn) [95FQ]
 | 50 to 150 |  | CCCN(C)c1ccnc2sc3c(=O)n(-c4ccc(C)cc4)c(C)nc3c12 [113M]
< 50 |  |  | O=c1c2sc3ncnc(NCC(F)(F)F)c3c2ncn1-c1ccc(Br)cc1 [95EE]
< 50 |  |  | Nc1ccnc2sc3c(=O)n(-c4ccc(Cl)cc4)cnc3c12 [28FK]
150 to 1000 |  |  | C=C(C)CNc1ccnc2sc3c(=O)n(-c4ccc5c(c4)OCCO5)cnc3c12 [28FF]
< 50 |  |  | O=c1c2sc3nccc(NCCCO)c3c2ncn1-c1ccc2c(c1)OCCO2 [28CI]
< 50 |  |  | O=c1c2sc3nccc(NC4CC4)c3c2ncn1-c1ccc(O)cc1 [28HS]
> 1000 |  |  | O=c1c2sc3ncnc(Nc4ccccc4)c3c2ncn1-c1ccccc1 [95GC]

IC50 [1] [nM] | IC50 [2] [nM] | also measured | SMILES
 | > 1000 |  | COc1cc(Br)c(-n2cnc3c(sc4nccc(N(C)C)c43)c2=O)c(Br)c1 [7BX]
 | > 1000 |  | CN(C)c1ccnc2sc3c(=O)n(-c4ccc5c(c4)CC(=O)N5)cnc3c12 [7BE]
 | 150 to 1000 |  | COc1ccc(-n2cnc3c(sc4nccc(Br)c43)c2=O)cc1 [compound 150]
 | > 1000 |  | O=c1c2sc3nccc(N4CCNCC4)c3c2ncn1C1CCCCC1 [28U]
 | 50 to 150 |  | CN(C)c1ccnc2sc3c(=O)n(C4CCC4)cnc3c12 [15J]
 | < 50 |  | CCCNc1ccnc2sc3c(=O)n(-c4ccc(OC)cc4)cnc3c12 [28AR]
< 50 |  |  | CCc1ccc(-n2cnc3c(sc4nccc(N(C)CC)c43)c2=O)cc1 [28BS]
 | < 50 |  | CN(C)c1ccnc2sc3c(=O)n(-c4ccc5scnc5c4)cnc3c12 [7CR]
150 to 1000 |  |  | O=c1c2sc3nccc(NC4CC4)c3c2ncn1-c1ccncc1 [28ED]
> 1000 |  |  | O=c1c2sc3nccc(N4CCCCC4)c3c2ncn1-c1ccc(Cl)cc1 [28GH]
< 50 |  |  | CN(CCO)c1ccnc2sc3c(=O)n(-c4ccc(Cl)cc4)cnc3c12 [28HG]
 | 150 to 1000 |  | COc1ccc(-n2c(C(F)(F)F)nc3c(sc4nccc(N(C)C)c43)c2=O)cc1 [117B]
> 1000 |  |  | Cc1ccc(-n2cnc3c(sc4ncnc(NCC(C)(C)C)c43)c2=O)cc1 [95FP]
 | < 50 |  | Cc1ccc(-n2cnc3c(sc4nccc(NCC(F)(F)F)c43)c2=O)cc1 [28AU]
 | 150 to 1000 |  | CN(C)c1ccnc2sc3c(=O)n(-c4ccc5[nH]c(=O)[nH]c5c4)cnc3c12 [7CS]
 | > 1000 |  | Cc1nc2cc(-n3cnc4c(sc5nccc(N(C)C)c54)c3=O)ccc2s1 [7AT]
 | 150 to 1000 |  | O=c1c2sc3nc(-c4cccs4)cc(C(F)(F)F)c3c2ncn1-c1ccccc1 [P-14]
< 50 |  | IC50 [3]: 0.18 nM | CNc1ccnc2sc3c(=O)n(-c4ccc(Cl)cc4)cnc3c12 [compound 193]
< 50 |  |  | O=c1c2sc3nccc(NCCCCO)c3c2ncn1-c1ccc(F)cc1 [28GU]
< 50 |  |  | Cc1ccc(-n2cnc3c(sc4ncnc(N(C)C5CC5)c43)c2=O)cc1 [95DZ]
 | < 50 |  | Cc1ccc(-n2cnc3c(sc4nccc(N(C)C)c43)c2=O)cc1C [7CV]
< 50 |  |  | C[C@@H](O)CNc1ccnc2sc3c(=O)n(-c4ccc(Br)cc4)cnc3c12 [28HB]
150 to 1000 |  |  | CN(C)c1cccc2sc3c(=O)n(-c4cccc(F)c4)cnc3c12 [103M]
150 to 1000 |  |  | COCC(C)Nc1ccnc2sc3c(=O)n(-c4ccc(Br)cc4)cnc3c12 (stereo not drawn) [28HA]

IC50 [1] [nM] | IC50 [2] [nM] | also measured | SMILES
 | 50 to 150 |  | CNc1c(Cl)cnc2sc3c(=O)n(C4CCCCC4)cnc3c12 [compound 42]
> 1000 |  |  | CCOC(=O)C1CCCC(n2cnc3c(sc4nccc(OC)c43)c2=O)C1 (stereo not drawn) [28EK]
< 50 |  |  | COc1ccc(-n2cnc3c(sc4nccc(NCCC(C)O)c43)c2=O)cc1 (stereo not drawn) [28HP]
< 50 |  |  | CN(CCO)c1ccnc2sc3c(=O)n(-c4ccc5c(c4)OCCO5)cnc3c12 [28CF]
 | > 1000 |  | COc1cc(-n2cnc3c(sc4nccc(N(C)C)c43)c2=O)c(OC)cc1Cl [7V]
< 50 |  |  | Cc1ccc(-n2cnc3c(sc4ncnc(NCCCCO)c43)c2=O)cc1 [95DN]
50 to 150 |  |  | COc1ccc(Nc2ncnc3sc4c(=O)n(-c5ccc(OC)cc5)cnc4c23)cc1 [190B]
 | > 1000 |  | CN(C)c1ccnc2sc3c(=O)n(NC(=O)C4CCC4)c(C4CCC4)nc3c12 [65D]
150 to 1000 |  |  | COc1ccnc2sc3c(=O)n(-c4ccc(F)cc4)cnc3c12 [compound 180]
 | 150 to 1000 |  | O=c1c2sc3nccc(Cl)c3c2ncn1-c1ccccc1 [compound 13]
 | 50 to 150 |  | CCc1nc2c(sc3nccc(N(C)C)c32)c(=O)n1-c1ccc(C)cc1 [116A]
 | < 50 |  | CN(C)c1ccnc2sc3c(=O)n(-c4ccc5c(c4)NC(=O)CO5)cnc3c12 [7BO]
< 50 |  | IC50 [3]: 0.77 nM | O=c1c2sc3nccc(NCCCO)c3c2ncn1-c1ccc(Cl)cc1 [28GD]
< 50 |  |  | CNc1c(Br)cnc2sc3c(=O)n(-c4ccc(Cl)cc4)cnc3c12 [compound 188]
 | < 50 |  | Cc1cccc(-n2cnc3c(sc4nccc(N(C)C)c43)c2=O)c1 [7CU]
 | 150 to 1000 |  | COc1ccc(-c2c(C(C)=O)c(C)nc3sc4c(=O)n(-c5ccccc5)cnc4c23)cc1 [P-12]
 | < 50 |  | CCN(C)c1ccnc2sc3c(=O)n(-c4ccc(C)cc4)c(C)nc3c12 [113I]
< 50 |  |  | COCCCNc1ccnc2sc3c(=O)n(-c4ccc(O)cc4)cnc3c12 [28HW]
< 50 |  |  | CCN(C)c1ccnc2sc3c(=O)n(-c4ccc5c(c4)CCO5)cnc3c12 [28CH]
> 1000 |  |  | O=c1c2sc3ncnc(Nc4ccccc4)c3c2ncn1-c1ccc2scnc2c1 [95GE]
 | < 50 |  | CNc1ccc(-n2cnc3c(sc4nccc(N(C)C)c43)c2=O)cc1 [7CF]
 | > 1000 |  | O=C(Nc1ccnc2sc3c(=O)n(C4CCCCC4)cnc3c12)c1ccc(Cl)cc1 [73G]
 | 150 to 1000 |  | O=c1c2sc3c(ccc[n+]3[O-])c2ncn1-c1ccccc1 [12A]
 | < 50 |  | CN(C)c1ncnc2sc3c(=O)n(-c4ccc5c(c4)CCO5)cnc3c12 [95E]
